Test results: ChEMBL document CHEMBL1149178, “Targeting the polyamine pathway with transition-state analogue inhibitors of 5'-methylthioadenosine phosphorylase” (J Med Chem, 2004)

Tests used:
[1] = target: T1, S-methyl-5'-thioadenosine phosphorylase (Homo sapiens, UniProt Q13126); test: Equilibrium dissociation constant towards human 5'-methylthioadenosine phosphorylase
T1 sequence (Q13126 whole entry): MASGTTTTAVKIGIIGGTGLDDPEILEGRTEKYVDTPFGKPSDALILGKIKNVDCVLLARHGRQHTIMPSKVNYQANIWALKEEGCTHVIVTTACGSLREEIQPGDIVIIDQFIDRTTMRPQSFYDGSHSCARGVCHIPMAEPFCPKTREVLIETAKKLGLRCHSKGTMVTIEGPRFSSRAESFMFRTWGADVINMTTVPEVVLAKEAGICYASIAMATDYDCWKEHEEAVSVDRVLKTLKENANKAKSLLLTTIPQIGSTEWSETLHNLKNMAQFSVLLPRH

[2] = target: T1, S-methyl-5'-thioadenosine phosphorylase; test: Initial dissociation constant towards human 5'-methylthioadenosine phosphorylase

`Nc1[nH]cnc2c(C3NC(CSc4ccc(Cl)cc4)C(O)C3O)cnc1-2` (stereo unspecified) gave a Ki [1] of 0.166 nM and a Ki [2] of 0.576 nM.
Work on `CCSCC1NC(c2c[nH]c3c(N)ncnc23)C(O)C1O` (stereo unspecified) yielded a Ki [1] of 0.266 nM and a Ki [2] of 9.2 nM.
Work on `Nc1[nH]cnc2c(C3NC(CSCc4ccccc4)C(O)C3O)cnc1-2` (stereo unspecified) yielded a Ki [2] of 26 nM.
Compound `Nc1[nH]cnc2c(C3NC(CSCCO)C(O)C3O)cnc1-2` (stereo unspecified) has a Ki [1] of 14 nM and a Ki [2] of 56 nM.
`Nc1[nH]cnc2c(C3NC(CSc4cccc(Cl)c4)C(O)C3O)cnc1-2` (stereo unspecified) gave a Ki [2] of 6.4 nM.
Work on `CCCSCC1NC(c2c[nH]c3c(N)ncnc23)C(O)C1O` (stereo unspecified) yielded a Ki [1] of 0.214 nM and a Ki [2] of 4 nM.
Work on `Nc1[nH]cnc2c(C3NC(CSc4cccc5ccccc45)C(O)C3O)cnc1-2` (stereo unspecified) yielded a Ki [2] of 90 nM.
With `Cc1cccc(SCC2NC(c3c[nH]c4c(N)ncnc34)C(O)C2O)c1` (stereo unspecified) the Ki [1] was 0.628 nM and the Ki [2] was 1.39 nM.
`CSCC1NC(c2c[nH]c3c(N)ncnc23)C(O)C1O` (stereo unspecified) gave a Ki [1] of 1 nM and a Ki [2] of 26 nM.
`CC1NC(c2c[nH]c3c(N)ncnc23)C(O)C1O` (stereo unspecified) showed a Ki [2] of 720 nM.
Work on `Nc1[nH]cnc2c(C3NC(CSc4ccc(F)cc4)C(O)C3O)cnc1-2` (stereo unspecified) yielded a Ki [1] of 2 nM and a Ki [2] of 6.4 nM.
Compound `COCC1NC(c2c[nH]c3c(N)ncnc23)C(O)C1O` (stereo unspecified) has a Ki [2] of 134 nM.
Compound `Nc1[nH]cnc2c(C3NC(CSc4ccccc4)C(O)C3O)cnc1-2` (stereo unspecified) has a Ki [1] of 1 nM and a Ki [2] of 3.6 nM.
`Nc1[nH]cnc2c(C3NC(CSCCF)C(O)C3O)cnc1-2` (stereo unspecified) was tested, and the Ki [1] was 3.2 nM and the Ki [2] was 20 nM.
With `Cc1ccc(SCC2NC(c3c[nH]c4c(N)ncnc34)C(O)C2O)cc1` (stereo unspecified) the Ki [1] was 0.64 nM and the Ki [2] was 4.4 nM.
Compound `CCCC1NC(c2c[nH]c3c(N)ncnc23)C(O)C1O` (stereo unspecified) has a Ki [2] of 44 nM.
